Results reported in the supplement of paper PMC10307832.

Columns and labels:
Assay in all cases: relative viability (nuclei count vs DMSO), 5 days (fraction); higher = more cells survive
Linifanib + Palbociclib = compound: Cc1ccc(F)c(NC(=O)Nc2ccc(-c3cccc4[nH]nc(N)c34)cc2)c1 [Linifanib] + CC(=O)c1c(C)c2cnc(Nc3ccc(N4CCNCC4)cn3)nc2n(C2CCCC2)c1=O [Palbociclib] (partner 0.5 µM)
In short: (§1)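 Lung cancer cell lines were pin-tool dosed in 1536-well plates on the day after seeding, with either a lone drug or a fixed anchor-drug dose plus five library-drug doses (not always all listed) in √10 steps. Nuclei were counted on 4× images after 5 days. Relative viability is the ratio of treated-well to vehicle-well nuclei counts, with each value a median of duplicate plates.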

Linifanib + Crizotinib = compound: Cc1ccc(F)c(NC(=O)Nc2ccc(-c3cccc4[nH]nc(N)c34)cc2)c1 [Linifanib] + C[C@@H](Oc1cc(-c2cnn(C3CCNCC3)c2)cnc1N)c1c(Cl)ccc(F)c1Cl [Crizotinib] (partner 1 µM)
In short: as §1

Linifanib + Tozasertib = compound: Cc1ccc(F)c(NC(=O)Nc2ccc(-c3cccc4[nH]nc(N)c34)cc2)c1 [Linifanib] + Cc1cc(Nc2cc(N3CCN(C)CC3)nc(Sc3ccc(NC(=O)C4CC4)cc3)n2)n[nH]1 [Tozasertib] (partner 0.1 µM)
In short: as §1

Linifanib + Trametinib = compound: Cc1ccc(F)c(NC(=O)Nc2ccc(-c3cccc4[nH]nc(N)c34)cc2)c1 [Linifanib] + CC(=O)Nc1cccc(-n2c(=O)n(C3CC3)c(=O)c3c(Nc4ccc(I)cc4F)n(C)c(=O)c(C)c32)c1 [Trametinib] (partner 0.02 µM)
In short: as §1

Linifanib + Foretinib = compound: Cc1ccc(F)c(NC(=O)Nc2ccc(-c3cccc4[nH]nc(N)c34)cc2)c1 [Linifanib] + COc1cc2c(Oc3ccc(NC(=O)C4(C(=O)Nc5ccc(F)cc5)CC4)cc3F)ccnc2cc1OCCCN1CCOCC1 [Foretinib] (partner 0.25 µM)
In short: as §1

Linifanib = compound: Cc1ccc(F)c(NC(=O)Nc2ccc(-c3cccc4[nH]nc(N)c34)cc2)c1 [Linifanib]
In short: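 In 1536-well plates, lung cancer cell lines rested overnight at 37 °C before five library-drug doses (not always all listed), √10 apart, were pinned onto vehicle-anchored plates. Nuclei were counted with MetaXpress from 4× Hoechst images taken after 5 days without medium change. Viability compares treated-well with vehicle-well nuclei as a median over plates, and plates needed control CV below 25% plus at least one doubling to pass.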

Row | Cell Line | relative viability (Linifanib + Palbociclib; first compound 0.03162 µM) | relative viability (Linifanib + Palbociclib; first compound 0.1 µM) | relative viability (Linifanib + Palbociclib; first compound 0.3162 µM) | relative viability (Linifanib + Crizotinib; first compound 0.03162 µM) | relative viability (Linifanib + Crizotinib; first compound 0.1 µM) | relative viability (Linifanib + Crizotinib; first compound 0.3162 µM) | relative viability (Linifanib + Tozasertib; first compound 0.03162 µM) | relative viability (Linifanib + Tozasertib; first compound 0.1 µM) | relative viability (Linifanib + Tozasertib; first compound 0.3162 µM) | relative viability (Linifanib + Trametinib; first compound 0.03162 µM) | relative viability (Linifanib + Trametinib; first compound 0.1 µM) | relative viability (Linifanib + Trametinib; first compound 0.3162 µM) | relative viability (Linifanib + Foretinib; first compound 0.03162 µM) | relative viability (Linifanib + Foretinib; first compound 0.1 µM) | relative viability (Linifanib + Foretinib; first compound 0.3162 µM) | relative viability (Linifanib; 0.03162 µM) | relative viability (Linifanib; 0.1 µM) | relative viability (Linifanib; 0.3162 µM)
1 | NCI-H647 | 0.342 | 0.506 | 0.484 | 0.963 | 1.12 | 0.857 | 0.188 | 0.325 | 0.352 | 0.567 | 0.526 | 0.588 | 1.03 | 1.23 | 1.12 | 1.05 | 1.05 | 0.945
2 | NCI-H2170 | 0.385 | 0.421 | 0.402 | 1.33 | 1.35 | 1.11 | 0.706 | 0.716 | 0.712 | 0.922 | 0.855 | 0.937 | 0.792 | 1.01 | 0.99 | 0.989 | 1.01 | 0.928
3 | LCLC-97TM1 | 0.212 | 0.243 | 0.196 | 0.43 | 0.456 | 0.362 | 0.205 | 0.231 | 0.189 | 0.2 | 0.179 | 0.16 | 0.865 | 0.961 | 0.852 | 1.15 | 1.02 | 0.919
4 | NCI-H661 | 0.437 | 0.398 | 0.417 | 1.12 | 1.23 | 0.906 | 0.35 | 0.35 | 0.36 | 0.577 | 0.591 | 0.55 | 1.07 | 0.978 | 0.973 | 1.02 | 0.977 | 0.962
5 | NCI-H1734 | 0.322 | 0.357 | 0.394 | 0.768 | 0.834 | 0.735 | 0.289 | 0.288 | 0.238 | 0.618 | 0.693 | 0.648 | 0.87 | 0.989 | 0.856 | 1.04 | 1.06 | 0.942
6 | H3255 | 0.358 | 0.302 | 0.312 | 0.865 | 0.892 | 0.85 | 0.767 | 0.662 | 0.601 | 0.629 | 0.698 | 0.554 | 1 | 0.946 | 0.721 | 1.04 | 1.01 | 1.02
7 | HCC-15 | 0.723 | 0.741 | 0.842 | 0.855 | 0.86 | 0.779 | 0.39 | 0.406 | 0.436 | 0.346 | 0.409 | 0.365 | 1.01 | 1.04 | 1.09 | 1.08 | 1.05 | 0.939
8 | NCI-H2126 | 0.376 | 0.388 | 0.379 | 1.03 | 1.04 | 0.975 | 0.847 | 0.998 | 0.806 | 0.584 | 0.571 | 0.547 | 1.22 | 1.06 | 1.2 | 1.02 | 1.01 | 0.972
